The test system of series [1] is mouse peritoneal macrophages. Put plainly: Suppression of foaming of macrophages: cholesterol ester yield in mouse peritoneal macrophages loaded with liposomes. To be noted: for activity at 5 µM: Mus musculus, Peritoneal macrophage, 16 h, read-out: CE yield (%). The class given is cell-based. The protocol:
Activity of the compounds of the present invention for suppressing the foaming of macrophages, which triggers arterial sclerosis, was examined.
(1) In vitro experiment using mouse peritoneal macrophages,
15-Week old female ICR mice (Nippon SLC) were subjected to bleeding by cutting off their cervicalis, and Hanks buffer (Nippon Seiyaku) was injected into their peritoneal cavities. After abdominal regions of the mice were massaged, the buffer was recovered immediately, and then the resulting buffer was centrifuged at 1,000 r.p.m. for five minutes to collect peritoneal macrophages. Then, the collected macrophages were suspended in GTI medium (Wako Pure Chemical Industries), and inoculated onto a 24-well microtiter plate. After the macrophages were cultivated at 37° C. under 5% CO2 for two hours, the culture medium was changed with Dulbecco Modified Eagle Medium (MEM, Nippon Seiyaku). The macrophages were further cultivated at 37° C. under 5% CO2 for 16 hours, and then a test compound and liposomes were added to the culture.
1) Test compound: dissolved in DMSO (Wako Pure Chemical Industries),
2) Liposomes: PC/PS/DCP/CHOL=50/50/10/75 (nmol)
After cultivation was further continued at 37° C. under 5% CO2 for 16 hours, lipid fraction was extracted with chloroform and methanol. The extracted lipid fraction was dissolved in isopropyl alcohol, and the produced cholesterol ester (CE) was quantified by an enzymatic luminescence method. Yield of the cholesterol ester was calculated as a relative ratio based on yield of the control as 100% where no test compound was added.

Series [2] is described as follows: AUC (area under the plasma concentration) after oral administration to mice.
Experimental: (§1) The compounds of the present invention were orally administered to mice to evaluate AUC (area under the plasma concentration).
(§2) 8-week old BALB/cA male mice (Charles River Japan) were conditioned for one week after arrival and then used. Each test substance was dispersed in a medium containing 10% macrogol (Yoshida Seiyaku) and 90% physiological saline (Hikari Seiyaku) to prepare 5 mg/ml test substance suspension. Each prepared suspension was orally administered to 6 mice (30 mg/kg) at the same time, and cervical spine of one mouse was dislocated at each time, i.e., immediately after the administration, and 30 minutes, 1 hour, 2 hours, 4 hours and 6 hours after the administration. The whole blood was collected from abdominal aorta and blood level of the test substance was determined by liquid chromatography.
The conditions of series [3]: mouse, in vivo, po, 30 mg/kg.
Experimental: as §1, §2
The mark [4] stands for this setting: test compound 5 μM, cholesterol ester yield relative to control without test compound = 100%, smaller value = more potent suppression.
Setting [5] is: male, BALB/cA, mouse, plasma, po, 30 mg/kg.

Read-outs that look alike come from different tables or passages of the source.

Take `Cn1c(SCCCCCOc2ccccn2)nc2ccccc21` [Compound 23, 1-Methyl-2-(5-(2-pyridyloxy)pentylthio)benzimidazole]: the activity at 5 µM in series [1] (setting [4]) stood at 21%. For the same molecule, in series [2] (setting [5]), the AUC worked out at 860 ng·h/mL.

As to `C=C(C)n1c(OCCCCCSc2nc3ccccc3[nH]2)nc2ccccc21` [Compound 20, 2-(5-(2-benzimidazolylthio)pentyloxy)-1-isopropenyl-benzimidazole], the activity at 5 µM in series [1] (setting [4]) came out at 22%.

For the molecule `c1ccc(OCCCCCCCSc2nc3ccccc3[nH]2)nc1` [Compound 13, 2-(7-(2-pyridyloxy)heptylthio)benzimidazole], the activity at 5 µM in series [1] (setting [4]) was 20%. In series [2] (setting [5]), this molecule showed an AUC of 150 ng·h/mL.

With `c1ccc2[nH]c(SCCCCCCOc3ccncc3)nc2c1` [Compound 25, 2-(6-(4-pyridyloxy)hexylthio)benzimidazole], the activity at 5 µM in series [1] (setting [4]) turned out to be 2.8%. This molecule came in with an AUC in series [2] (setting [5]) of 1210 ng·h/mL.

Turning to `c1ccc2[nH]c(SCCCCCNc3nc4ccccc4s3)nc2c1` [Compound 30, 2-(5-(2-benzothiazolylamino)pentylthio)benzimidazole], the activity at 5 µM in series [1] (setting [4]) is 4.2%. The molecule further registered an AUC in series [2] (setting [5]) of 230 ng·h/mL.

Turning to `c1ccc2[nH]c(SCCCCCCNc3nc4ccccc4o3)nc2c1` [Compound 32, 2-(6-(2-benzoxazolylamino)hexylthio)benzimidazole], the activity at 5 µM in series [1] (setting [4]) is 12%.

On to `c1ccc2[nH]c(SCCOCCOCCNc3nc4ccccc4o3)nc2c1` [Compound 36, 2-(2-(2-(2-(2-benzoxazolylamino)ethoxy)ethoxy)ethylthio)-benzimidazole], for which, in series [1] (setting [4]), the activity at 5 µM is 12%. Also, the AUC in series [2] (setting [5]) was 680 ng·h/mL.

As to `CCC(=O)n1c(SCCCCCOc2ccccn2)nc2ccccc21` [Compound 24, 1-Propionyl-2-(5-(2-pyridyloxy)pentylthio)benzimidazole], the activity at 5 µM in series [1] (setting [4]) was determined as 25%.

Consider `c1ccc(OCCCCSc2nc3ccccc3[nH]2)nc1` [Compound 11, 2-(4-(2-pyridyloxy)butylthio)benzimidazole], for which the activity at 5 µM in series [1] (setting [4]) worked out at 18%. Also, the AUC in series [2] (setting [5]) is 240 ng·h/mL.

As for `CC(=O)Nc1ccc2nc(SCCCCCOc3ccccn3)[nH]c2c1` [Compound 18, 5-acetylamino-2-(5-(2-pyridyloxy)pentylthio)benzimidazole], the activity at 5 µM in series [1] (setting [4]) was determined as 19%.

As for `c1ccc2[nH]c(SCCCCCOc3ccncc3)nc2c1` [Compound 19, 2-(5-(4-pyridyloxy)pentylthio)benzimidazole], in series [1] (setting [4]), the activity at 5 µM was 4.2%. In addition, the AUC in series [2] (setting [5]) came to 5520 ng·h/mL.

Take `c1ccc2[nH]c(SCCCCCNc3nc[nH]n3)nc2c1` [Compound 29, 2-(5-(3-(1,2,4-triazyl)amino)pentylthio)benzimidazole]: in series [1] (setting [4]), the “CE yield (%)” value was determined as 12%. For the same molecule, in series [3], the AUC was 180 ng·h/mL.

With `COc1ccc2nc(SCCCCCOc3ccccn3)[nH]c2c1` [Compound 17, 5-methoxy-2-(5-(2-pyridyloxy)pentylthio)benzimidazole], the activity at 5 µM in series [1] (setting [4]) was 14%. Besides, the AUC in series [2] (setting [5]) was determined as 1220 ng·h/mL.

Consider `c1ccc(OCCCCCCSc2nc3ccccc3[nH]2)nc1` [Compound 12, 2-(6-(2-pyridyloxy)hexylthio)benzimidazole], for which the activity at 5 µM in series [1] (setting [4]) was 13%.

`Cc1ccc2nc(SCCCCCOc3ccccn3)[nH]c2c1` [Compound 16, 5-methyl-2-(5-(2-pyridyloxy)pentylthio)benzimidazole]: in series [1] (setting [4]), the activity at 5 µM came to 14%. Also, the AUC in series [2] (setting [5]) was found to be 1410 ng·h/mL.

As for `c1ccc(OCCCCCCCCSc2nc3ccccc3[nH]2)nc1` [Compound 10, 2-(8-(2-pyridyloxy)octylthio)benzimidazole], in series [1] (setting [4]), the activity at 5 µM came out at 12%.

In the case of `c1ccc(OCCCCCSc2nc3ccccc3[nH]2)nc1` [Compound 1, 2-(5-(2-pyridyloxy)pentylthio)benzimidazole], the activity at 5 µM in series [1] (setting [4]) was 4.1%. For the same molecule, the AUC in series [2] (setting [5]) stood at 340 ng·h/mL.

In the case of `Cn1c(OCCCCCSc2nc3ccccc3[nH]2)nc2ccccc21` [Compound 9], the activity at 5 µM in series [1] (setting [4]) was 6.2%. Also, the AUC in series [2] (setting [5]) was 110 ng·h/mL.

As for `COCn1c(SCCCCCNc2cnccn2)nc2ccccc21` [Compound 28, 1-methoxymethyl-2-(5-(N-(2-pyrazyl)amino)pentylthio)-benzimidazole], the “CE yield (%)” value in series [1] (setting [4]) was determined as 24%. For the same molecule, the AUC in series [3] was 410 ng·h/mL.

In the case of `c1cnc(OCCCCCSc2nc3ccccc3[nH]2)nc1` [Compound 6], the activity at 5 µM in series [1] (setting [4]) came out at 12%. Also, the AUC in series [2] (setting [5]) turned out to be 680 ng·h/mL.

As for `c1ccc2[nH]c(OCCCCCSc3nc4ccccc4[nH]3)nc2c1` [Compound 21, 2-(5-(2-benzimidazolylthio)pentyloxy)benzimidazole], in series [1] (setting [4]), the activity at 5 µM turned out to be 18%. This molecule also registered an AUC in series [2] (setting [5]) of 2420 ng·h/mL.

On to `c1ccc2[nH]c(SCCCCCOc3nccs3)nc2c1` [Compound 5], for which the activity at 5 µM in series [1] (setting [4]) came out at 11%. Further, in series [2] (setting [5]), the AUC was determined as 100 ng·h/mL.

Turning to “2-(5-(1-phenyltetrazolyl-5-oxy)pentylthio)benzimidazole [Compound 2]”, the “CE yield (%)” value in series [1] is 21%. This molecule yielded an area under the curve (AUC) in series [2] (oral 30 mg/kg suspension, BALB/cA male mice, blood level 0 to 6 hours by liquid chromatography) of 1220 ng·h/mL.

For `c1ccc2[nH]c(SCCOCCNc3nc4ccccc4o3)nc2c1` [Compound 35, 2-(2-(2-(2-benzoxazolylamino)ethoxy)ethylthio)-benzimidazole], in series [1] (setting [4]), the activity at 5 µM came out at 9.7%.

Turning to `Clc1cc2nc(SCCCCCOc3ccccn3)[nH]c2cc1Cl` [Compound 15, 5,6-dichloro-2-(5-(2-pyridyloxy)pentylthio)benzimidazole], in series [1] (setting [4]), the activity at 5 µM is 18%. Also, the AUC in series [2] (setting [5]) is 680 ng·h/mL.

What is called AUC is the area under the concentration-time curve, a measure of exposure. The low end stands for less exposure, the high end for more exposure.
